{"source": "patent US20240026300A1", "about": "“KIDNEY EXTRACELLULAR MATRIX-DERIVED SCAFFOLD FOR CULTURE AND TRANSPLANTATION OF KIDNEY ORGANOID AND METHOD OF PREPARING THE SAME” (CELLARTGEN INC., priority 2020, published 2024)", "test_system": "mouse kidney organoid", "assay": "Kidney fibrosis model by TGF-β treatment of kidney organoid", "type": "cell-based", "experimental": "A kidney fibrosis model was constructed using a kidney organoid cultured in the KEM hydrogel. To this end, kidney fibrosis was induced by treatment of a mouse kidney organoid with TGF-b. On day 9 of kidney organoid culture (subculture once on day 7 and additional culture for 2 days), the kidney organoids were treated with each concentration of TGF-β for 3 days and then analyzed on day 12. A kidney organoid not treated with TGF-β (NT, No treatment) was compared as a control group.", "data": [{"substance": "TGF-β", "values": [{"measurement": "Acta2 and Colla1 (fibrosis markers) mRNA expression levels, qPCR", "setting": "TGF-β for 3 days, analyzed day 12", "result": "increased in proportion to the increase in treatment concentration"}, {"measurement": "kidney organoid morphology and growth", "setting": "each concentration of TGF-β for 3 days, analyzed day 12", "result": "exhibited morphological changes and did not grow well"}, {"measurement": "hydrogel and organoid appearance after TGF-β", "setting": "organoid cultured in 7 mg/ml KEM hydrogel", "result": "the KEM hydrogel contracted and fibrosis-induced organoids agglomerated in a mass"}, {"measurement": "Vimentin, COL1, α-SMA (fibrosis markers) expression, immunostaining", "setting": "organoids in Matrigel and KEM scaffolds", "result": "expression of all fibrosis markers was increased"}]}]}
